Like-named read-outs stand apart in the source and are kept apart here. Peptide text beside a SMILES is read from it.
What was measured:
[1] = test system: glutathione (GSH) in hepatocytes; assay: Tests in vitro: glutathione content of isolated rat hepatocytes; type: cell-based; conditions: for activity at 250 µM / activity at 500 µM / activity at 1000 µM / activity at 2500 µM / activity at 5000 µM: read-out: Glutathione concentrations; for activity at 1000 µM: DEM + 1.0 mM; for activity at 5000 µM: DEM + 5.0 mM
Procedure: The experimental model envisages the isolation of hepatic parenchymal cells of rats following perfusion, with collagenase, of the isolated organ. Prior to each test, hepatocytes vitality was quantified by Tripan Blue […]. Only the cells with a vitality greater than 90% were utilized. Hepatocytes were resuspended, at a concentration of 10^6 cells/ml, in a saline medium (Krebs Heinseleit) at ph 7.4, and then placed into rotating flasks in the presence of O2 (95%) and CO2 (5%), at 37° C. Cells keep vital for 5-6 hours at least.
[…] The cells were then washed for 30 min. and incubated with various concentrations of the test substance (from 0.25 to 5 mM).
By this experimental model it is possible to test the effect of the substance by evaluating the hepatic functionality determined by measurements of the vitality (Tables Nos. 3, 4, and 5) and of glutathione content (Tables 6, 7, and 8).
In the Tables 3-8 herein below reported, the controls are represented by normal hepatocytes, not treated either with DEM or with compound (I).

splenocytes = assay: Blastization with concavaline A (ConA) on splenocytes of PSC-treated young and old rats; type: in vivo, Sprague-Dawley rats
Procedure: Sprague-Dawley rats (Charles River, Calco (CO)), aged 10 weeks (young adults) and 24 months (old), were stabled under standard conditions (24°±1° C., 12 h light/dark cycle, free access to food and water). Handlings were made in such a way as to avoid stressful stimuli.
The animals were stabled in groups of 6 per cage and treated for 2 weeks (15 days) with a PSC daily dose of 600 mg/kg by intraperitoneal route (i.p.).
Once the treatment with PSC previously described in the paragraph "Animals" was completed, the animals were sacrificed by decapitation, spleens were excised under sterile conditions and broken up in a Petri dish. The splenocytes thus obtained by mechanical dispersion were placed in culture medium RPMI 1640 with addition of calf fetal serum (FBS) (10%).
The resulting cellular suspension was centrifuged at 2500 rpm for 20 min on Ficoll-Paque gradient. Stratified splenocytes were taken by a sterile Pasteur pipette and washed three times with sterile FBS. Cells were counted and placed onto 96-well plastic plates at a concentration of 1×10^5 /well in of volume of 0.1 ml. The cultures thus obtained were incubated for 48 hrs at 37° C., in a […] environment. Forty-eight hours later, concavaline A (ConcA) was added to the cultures at a concentration of 1 μg/ml in a volume of 0.1 ml. Eighteen hours later, tritiated thymidine was added (volume: 10 μl). Incorporation of tritiated thymidine was stopped after 3 hrs, by elimination of excess liquid by suction and by sucking the cells on fibreglass filters. Filters were placed in scintillation vials containing 5 ml of scintillating solution (Insta-Gel). Radioactivity (dpm) was measured during 2 min using a β-counter.
The results obtained on groups treated with ConA alone (controls), on groups treated with PSC (600 mg/kg), and on groups that had not been treated either with ConA or PSC are compared in Table 13.

[2] = test system: Lewis lung carcinoma cells; assay: Transplantable neoplasms: metastases development in BALB/c mice; type: in vivo
Procedure: Male adult BALB/c mice weighing 20 g were stabled under standard conditions (24°±1° C., 12 h light/dark cycle, free access to food and water). Handlings were made in such a way as to avoid stressful stimuli.
All animals, subdivided into groups of 6, were treated 4 weeks with a PSC dose (600 mg/kg). […] Treatment was continued two weeks after tumour inoculation. The mice were sacrificed and the tumoral mass growth and the development of metastases, if any, were evaluated.

[3] = Rattus norvegicus, Hepatocyte, 0 h, 0 time
[4] = Rattus norvegicus, Hepatocyte, 0.5 h, 30 min
[5] = Rattus norvegicus, Hepatocyte, 1 h, 1 hr
[6] = Rattus norvegicus, Hepatocyte, 2 h, 2 hrs
[7] = Rattus norvegicus, Hepatocyte, 4 h, 4 hrs
[8] = 600 mg/kg i.p., 30 days' treatment, 15 days after inoculation

For `CC(=O)SC[C@H](NC(=O)[C@@H]1CCC(=O)N1)C(=O)O` [PSC, 2-(S)-(2-pyrrolidone-5-(S)-carbonyl amido)-3-acetylmercapto propionic acid] (HELM PEPTIDE1{[Glp].C}|PEPTIDE2{[ac]}$PEPTIDE1,PEPTIDE2,2:R3-1:R2$$$V2.0), the “increase in the GSH content” value ([1]; DEM-pretreated hepatocytes, 2.5 and 5 mM) was “greater than 170%”, the activity at 250 µM ([1]; Rattus norvegicus, Hepatocyte, 0 h, DEM + 0.25 mM, 0 time) was 28% and the activity at 500 µM ([1]; Rattus norvegicus, Hepatocyte, 0 h, DEM + 0.50 mM, 0 time) was 28.4%. It also gave an activity at 1000 µM [1, 3] of 25.8%, an activity at 2500 µM ([1]; Rattus norvegicus, Hepatocyte, 0 h, DEM + 2.5 mM, 0 time) of 23.9% and an activity at 5000 µM [1, 3] of 26.6%. The activity at 250 µM ([1]; Rattus norvegicus, Hepatocyte, 0 h, no DEM, 0.25 mM, 0 time) was 104%, the activity at 500 µM ([1]; Rattus norvegicus, Hepatocyte, 0 h, no DEM, 0.50 mM, 0 time) was 107% and the activity at 2500 µM ([1]; Rattus norvegicus, Hepatocyte, 0 h, no DEM, 2.5 mM, 0 time) was 99.5%. It also gave an activity at 250 µM ([1]; Rattus norvegicus, Hepatocyte, 0.5 h, DEM + 0.25 mM, 30 min) of 42.8%, an activity at 500 µM ([1]; Rattus norvegicus, Hepatocyte, 0.5 h, DEM + 0.50 mM, 30 min) of 45.7% and an activity at 1000 µM [1, 4] of 52.7%. For the same molecule, the activity at 2500 µM ([1]; Rattus norvegicus, Hepatocyte, 0.5 h, DEM + 2.5 mM, 30 min) was 61.1%, the activity at 5000 µM [1, 4] was 69.4% and the activity at 250 µM ([1]; Rattus norvegicus, Hepatocyte, 0.5 h, no DEM, 0.25 mM, 30 min) was 117%. It also gave an activity at 500 µM ([1]; Rattus norvegicus, Hepatocyte, 0.5 h, no DEM, 0.50 mM, 30 min) of 144%, an activity at 2500 µM ([1]; Rattus norvegicus, Hepatocyte, 0.5 h, no DEM, 2.5 mM, 30 min) of 158% and an activity at 250 µM ([1]; Rattus norvegicus, Hepatocyte, 1 h, DEM + 0.25 mM, 1 hr) of 54.8%. For the same molecule, the activity at 500 µM ([1]; Rattus norvegicus, Hepatocyte, 1 h, DEM + 0.50 mM, 1 hr) was 74.2%, the activity at 1000 µM [1, 5] was 71% and the activity at 2500 µM ([1]; Rattus norvegicus, Hepatocyte, 1 h, DEM + 2.5 mM, 1 hr) was 89%. The activity at 5000 µM [1, 5] was 92%, the activity at 250 µM ([1]; Rattus norvegicus, Hepatocyte, 1 h, no DEM, 0.25 mM, 1 hr) was 134% and the activity at 500 µM ([1]; Rattus norvegicus, Hepatocyte, 1 h, no DEM, 0.50 mM, 1 hr) was 155%. The activity at 2500 µM ([1]; Rattus norvegicus, Hepatocyte, 1 h, no DEM, 2.5 mM, 1 hr) was 182%, the activity at 250 µM ([1]; Rattus norvegicus, Hepatocyte, 2 h, DEM + 0.25 mM, 2 hrs) was 81.2% and the activity at 500 µM ([1]; Rattus norvegicus, Hepatocyte, 2 h, DEM + 0.50 mM, 2 hrs) was 103%. It also gave an activity at 1000 µM [1, 6] of 96.7%, an activity at 2500 µM ([1]; Rattus norvegicus, Hepatocyte, 2 h, DEM + 2.5 mM, 2 hrs) of 119% and an activity at 5000 µM [1, 6] of 119%. The activity at 250 µM ([1]; Rattus norvegicus, Hepatocyte, 2 h, no DEM, 0.25 mM, 2 hrs) was 142%, the activity at 500 µM ([1]; Rattus norvegicus, Hepatocyte, 2 h, no DEM, 0.50 mM, 2 hrs) was 159% and the activity at 2500 µM ([1]; Rattus norvegicus, Hepatocyte, 2 h, no DEM, 2.5 mM, 2 hrs) was 191%. For the same molecule, the activity at 250 µM ([1]; Rattus norvegicus, Hepatocyte, 4 h, DEM + 0.25 mM, 4 hrs) was 83%, the activity at 500 µM ([1]; Rattus norvegicus, Hepatocyte, 4 h, DEM + 0.50 mM, 4 hrs) was 138% and the activity at 1000 µM [1, 7] was 119%. For the same molecule, the activity at 2500 µM ([1]; Rattus norvegicus, Hepatocyte, 4 h, DEM + 2.5 mM, 4 hrs) was 173%, the activity at 5000 µM [1, 7] was 191% and the activity at 250 µM ([1]; Rattus norvegicus, Hepatocyte, 4 h, no DEM, 0.25 mM, 4 hrs) was 146%. The activity at 500 µM ([1]; Rattus norvegicus, Hepatocyte, 4 h, no DEM, 0.50 mM, 4 hrs) was 207%, the activity at 2500 µM ([1]; Rattus norvegicus, Hepatocyte, 4 h, no DEM, 2.5 mM, 4 hrs) was 211% and the activation at 250 µM ([1]; Rattus norvegicus, Hepatocyte, DEM-pretreated hepatocytes, 0.25 mM, 4 hours, read-out: increase in GSH values) was ~80%. For the same molecule, the activation at 500 µM ([1]; Rattus norvegicus, Hepatocyte, DEM-pretreated hepatocytes, 0.5 mM, 4 hours, read-out: increase in GSH values) was 130 to 140%, the activation at 1000 µM ([1]; Rattus norvegicus, Hepatocyte, DEM-pretreated hepatocytes, 1 mM, read-out: increase in the GSH content) was ~120% and the “restoring thiol groups and in particular GSH (in words)” value ([1]; in vitro) was “greatly effective in restoring thiol groups and in particular GSH”. For the same molecule, the “permeability of the hepatocyte membrane (in words)” value ([1]; normal hepatocytes) was “clearly indicates the permeability of the hepatocyte membrane”, the “increase in basal GSH at 2.5 mM compared with 0.5 mM (in words)” value ([1]; normal hepatocytes, 4 hours) was “superimposable to that caused by concentrations five times lower (0.5 mM)” and the “increase in GSH basal values” ([1]; normal hepatocytes, concentrations from 0.5 mM, after 4 hrs, in respect of controls) was “greater than 180%”. For the same molecule, the “splenocytes blastization induced by ConA (in words)” value (splenocytes; 600 mg/kg) was “showed a significant increase in splenocytes blastization induced by ConA”, the “blastization (tritiated thymidine incorporation), Young” value (splenocytes; 600 mg/kg i.p. 15 days + ConA) was 1488 ± 62 DPM × 100 and the “blastization (tritiated thymidine incorporation), Old” value (splenocytes; 600 mg/kg i.p. 15 days + ConA, *P < 0.05) was 1250 ± 11 DPM × 100. For the same molecule, the “Mice with metastases, %” value [2, 8] was 33%, the Mice with metastases/group [2, 8] was 2/6 and the “metastatic process (in words)” value ([2]; mouse, in vivo) was “slows down the metastatic process”.

— US5736565A, “Therapeutic compounds suitable for the treatment of diseases connected with glutathione deficiency, process for their preparation, and pharmaceutical compositions containing same” (Prospa B.V., priority 1992, dated 1998)
